Laboratory results from patent US11091479B2, “Triazolopyridin-3-ones or their salts and pharmaceutical compositions comprising the same” (YUHAN CORPORATION, priority 2018, dated 2021).
Where a name gives a salt, the structure may show the parent alone.

Tests used:
Type in all cases: biochemical
[1] = molecular target: T1, recombinant human DAO (diamine oxidase) (Homo sapiens, UniProt P19801); assay: Activity on recombinant human DAO, method similar to VAP-1 assay, 1 mM putrescine substrate; conditions: read-out: Inhibitory Activity (IC50, nM) DAO
T1 construct: purchased R&D systems
T1 sequence (P19801 20-751): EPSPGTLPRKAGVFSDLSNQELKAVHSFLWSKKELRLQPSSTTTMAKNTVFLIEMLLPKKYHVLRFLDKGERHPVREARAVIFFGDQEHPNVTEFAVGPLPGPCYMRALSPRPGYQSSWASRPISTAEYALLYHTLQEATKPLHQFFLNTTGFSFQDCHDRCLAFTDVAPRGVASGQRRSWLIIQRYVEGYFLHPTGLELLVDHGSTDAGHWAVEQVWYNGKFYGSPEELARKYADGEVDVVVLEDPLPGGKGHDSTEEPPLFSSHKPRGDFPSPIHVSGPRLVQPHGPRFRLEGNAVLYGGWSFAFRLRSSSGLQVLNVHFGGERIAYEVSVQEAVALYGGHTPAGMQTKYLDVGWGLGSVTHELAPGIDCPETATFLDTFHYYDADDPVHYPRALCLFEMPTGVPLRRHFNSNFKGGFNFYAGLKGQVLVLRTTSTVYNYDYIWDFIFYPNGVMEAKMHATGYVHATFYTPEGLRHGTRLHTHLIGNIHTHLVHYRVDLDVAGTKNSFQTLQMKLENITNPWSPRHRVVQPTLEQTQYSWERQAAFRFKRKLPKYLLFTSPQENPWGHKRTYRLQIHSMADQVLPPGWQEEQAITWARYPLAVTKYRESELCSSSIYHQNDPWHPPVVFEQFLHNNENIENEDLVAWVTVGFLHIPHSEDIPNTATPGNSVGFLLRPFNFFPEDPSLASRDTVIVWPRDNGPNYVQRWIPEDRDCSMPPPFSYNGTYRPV
Summary of the method: (§1)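 Amplex Red/HRP-coupled H2O2 fluorescence assay run as for VAP-1: enzyme in 50 mM sodium phosphate pH 7.4 preincubated with compound 30 min at 37 °C, then substrate (putrescine for DAO, benzylamine for MAO-B, tyramine for MAO-A) added with 200 uM Amplex Red, 1 U/mL HRP. Signal rate over 1-2 h; IC50 from 4-parameter logistic fit.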

recombinant human VAP-1 = molecular target: T2, recombinant human VAP-1 (Homo sapiens, UniProt Q16853); assay: Activity on recombinant human VAP-1, HRP-coupled Amplex Red hydrogen peroxide assay, benzylamine substrate; conditions: 30 min incubation at 37° C., 1 mM benzylamine, read-out: Inhibitory Activity (IC50, nM) human VAP-1
T2 construct: purchased R&D systems
T2 sequence (Q16853 1-763): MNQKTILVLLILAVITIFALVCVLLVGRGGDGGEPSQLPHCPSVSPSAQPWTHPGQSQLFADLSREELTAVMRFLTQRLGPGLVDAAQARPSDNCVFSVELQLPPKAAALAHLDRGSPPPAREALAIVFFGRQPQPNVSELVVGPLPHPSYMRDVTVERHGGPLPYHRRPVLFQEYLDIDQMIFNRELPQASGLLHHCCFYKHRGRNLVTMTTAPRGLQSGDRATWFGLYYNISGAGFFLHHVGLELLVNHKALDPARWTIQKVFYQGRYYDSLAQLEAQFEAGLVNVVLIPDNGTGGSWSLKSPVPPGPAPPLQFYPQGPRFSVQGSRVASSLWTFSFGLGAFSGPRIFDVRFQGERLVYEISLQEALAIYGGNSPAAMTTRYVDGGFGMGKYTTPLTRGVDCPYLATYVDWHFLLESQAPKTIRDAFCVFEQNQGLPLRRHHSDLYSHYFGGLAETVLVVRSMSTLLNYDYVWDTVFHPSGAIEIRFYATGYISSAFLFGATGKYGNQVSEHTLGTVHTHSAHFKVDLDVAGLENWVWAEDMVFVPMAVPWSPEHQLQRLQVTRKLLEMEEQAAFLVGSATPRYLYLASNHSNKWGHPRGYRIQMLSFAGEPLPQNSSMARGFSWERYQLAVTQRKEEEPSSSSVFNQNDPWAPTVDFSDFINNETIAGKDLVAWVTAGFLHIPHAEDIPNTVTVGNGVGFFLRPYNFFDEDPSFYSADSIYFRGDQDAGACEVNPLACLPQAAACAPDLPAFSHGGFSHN
Summary of the method: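 Recombinant human VAP-1 in 50 mM sodium phosphate pH 7.4 preincubated with compound for 30 min at 37 °C, then 1 mM benzylamine, 200 uM Amplex Red and 1 U/mL HRP added. Resorufin fluorescence (ex 544/em 590 nm) followed over 1-2 h; % signal-rate decrease vs DMSO control, 8-point 4-parameter fit for IC50.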

[2] = molecular target: T3, recombinant human MAO-B (monoamine oxidase-B) (Homo sapiens, UniProt P27338); assay: Activity on recombinant human MAO-B, method similar to VAP-1 assay, 1 mM benzylamine substrate; conditions: read-out: Inhibitory Activity (IC50, nM) MAO-B
T3 construct: purchased Sigma-Aldrich
T3 sequence (P27338 1-520): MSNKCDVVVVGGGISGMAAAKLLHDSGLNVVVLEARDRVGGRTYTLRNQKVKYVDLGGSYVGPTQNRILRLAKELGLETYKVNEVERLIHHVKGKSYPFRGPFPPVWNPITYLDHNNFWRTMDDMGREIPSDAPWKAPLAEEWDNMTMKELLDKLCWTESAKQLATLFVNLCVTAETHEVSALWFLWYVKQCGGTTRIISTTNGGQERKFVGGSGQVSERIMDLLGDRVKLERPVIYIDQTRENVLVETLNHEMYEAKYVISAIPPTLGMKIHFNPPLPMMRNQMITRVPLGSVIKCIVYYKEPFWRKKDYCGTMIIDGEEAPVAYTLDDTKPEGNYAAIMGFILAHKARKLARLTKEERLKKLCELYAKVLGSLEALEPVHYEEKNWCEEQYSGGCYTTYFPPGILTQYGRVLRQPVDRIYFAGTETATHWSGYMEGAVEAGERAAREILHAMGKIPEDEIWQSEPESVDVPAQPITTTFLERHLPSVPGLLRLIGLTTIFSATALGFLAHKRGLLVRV
Summary of the method: as §1

[3] = molecular target: T4, recombinant human MAO-A (monoamine oxidase-A) (Homo sapiens, UniProt P21397); assay: Activity on recombinant human MAO-A, method similar to VAP-1 assay, 0.5 mM tyramine substrate; conditions: read-out: Inhibitory Activity (IC50, nM) MAO-A
T4 construct: purchased Sigma-Aldrich
T4 sequence (P21397 1-527): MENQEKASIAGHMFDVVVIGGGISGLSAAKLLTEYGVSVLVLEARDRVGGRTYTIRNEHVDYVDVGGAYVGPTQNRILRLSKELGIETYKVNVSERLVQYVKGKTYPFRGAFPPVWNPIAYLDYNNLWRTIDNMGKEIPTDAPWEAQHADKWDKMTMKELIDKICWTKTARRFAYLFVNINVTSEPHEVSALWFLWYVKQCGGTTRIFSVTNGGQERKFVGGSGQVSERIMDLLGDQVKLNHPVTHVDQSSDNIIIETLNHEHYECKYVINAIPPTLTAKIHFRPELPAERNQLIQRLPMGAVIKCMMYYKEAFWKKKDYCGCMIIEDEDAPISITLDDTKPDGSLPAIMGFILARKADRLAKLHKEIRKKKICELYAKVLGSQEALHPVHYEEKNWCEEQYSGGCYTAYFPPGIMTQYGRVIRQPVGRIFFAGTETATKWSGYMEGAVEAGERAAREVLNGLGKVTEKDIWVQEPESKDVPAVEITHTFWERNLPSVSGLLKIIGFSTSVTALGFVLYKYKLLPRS
Summary of the method: as §1

Structure (SMILES) | IC50 [1] [nM] | IC50 (recombinant human VAP-1) [nM] | IC50 [2] [nM] | IC50 [3] [nM]
NCC(Cn1nc2cc(Br)ccn2c1=O)=C(F)F [Example 47, 2-[2-(aminomethyl)-3,3-difluoro-allyl]-7-bromo-[1,2,4]triazolo[4,3-a]pyridin-3-one trifluoroacetate] | 42000 | 7 | > 100000 | > 100000
NC/C(=C\F)Cn1nc2cc(-c3ccnc4[nH]ccc34)ccn2c1=O [Example 40, 2-[(2E)-2-(aminomethyl)-3-fluoroprop-2-en-1-yl]-7-(1H-pyrrolo[2,3-b]pyridin-4-yl)[1,2,4]triazolo[4,3-a]pyridin-3(2H)-one hydrochloride] | 9.4 | 0.3 | 760 | > 100000
NCC(Cn1nc2cc(-c3ccc(C(F)(F)F)nc3)ccn2c1=O)=C(F)F [Example 50, 2-[2-(aminomethyl)-3,3-difluoro-allyl]-7-[6-(trifluoromethyl)-3-pyridyl]-[1,2,4]triazolo[4,3-a]pyridin-3-one trifluoroacetate] | 3 | 0.2 | 100 | > 100000
